# Measured values reported in patent publication US20150253591A1, “DYE COMPOSITION FOR ELECTROWETTING DISPLAY AND ELECTROWETTING DISPLAY DEVICE” (FUJIFILM CORPORATION, priority 2012, published 2015).
# Key:
# Type in all cases: physicochemical
# [1] = Low temperature suitability of dye composition; set-up: key: A dye composition was maintained in a liquid state.; B: A dye composition was not maintained in a liquid state, and changed to a solid state; details: -41° C. for 12 hours; for Low temperature suitability, Dihexyl ether (present invention): 20% by mass dye in dihexyl ether; for Low temperature suitability, Dipentyl ether (present invention): 20% by mass dye in dipentyl ether; for Low temperature suitability, Decane (comparative): 20% by mass dye in n-decane
# Description: Each dye composition was placed in a vial, and the vial was left standing in an ice bath (calcium chloride+ice) at −41° C. for 12 hours. The condition of each dye composition after standing was observed and evaluated according to the following evaluation criteria.
# A: A dye composition was maintained in a liquid state.
# B: A dye composition was not maintained in a liquid state, and changed to a solid state.
# [2] = High temperature suitability of dye composition; details: 180° C. for 2 hours without a cap; for High temperature suitability, Dihexyl ether (present invention): 20% by mass dye in dihexyl ether; for High temperature suitability, Dipentyl ether (present invention): 20% by mass dye in dipentyl ether; for High temperature suitability, Decane (comparative): 20% by mass dye in n-decane
# Description: Each dye composition was placed in a vial, and the vial was left standing in an oil bath without a cap at 180° C. for 2 hours. The mass of the vial after standing was weighed and evaluated according to the following evaluation criteria.
# A: Decrease in the mass of the vial was less than 10%.
# B: Decrease in the mass of the vial was 10% or more.
# [3] = Solubility of dye in nonpolar solvent; details: for Solubility Dihexyl ether: in dihexyl ether at 25° C. and 0.1 MPa; for Solubility n-Decane: in n-decane at 25° C. and 0.1 MPa
# Description: Each of the prepared 20% by mass solutions (dye compositions) was heated at 50° C. and then left standing at room temperature for 12 hours to obtain a supernatant liquid. The amount of the unsolved dye was weighed and the solubility of each pigment in dihexyl ether or n-decane at 25° C. and 0.1 MPa was calculated.
# [4] = Relative dielectric constant of nonpolar solvent; details: 1 kHz, 20° C. and 40% RH
# Description: The relative dielectric constant is determined by injecting a nonpolar solvent in a glass cell with a 10-μm cell gap provided with an ITO transparent electrode, and measuring the electrical capacity of the obtained cell using a 2353LCR METER manufactured by NF Corporation (measurement frequency: 1 kHz) at 20° C. and 40% RH.
compound,measurement,setting,value
CCCCC(CC)CN(CC(CC)CCCC)c1ccc(/C=C2\C(=O)ON=C2C(C)(C)C)c(C)c1 (stereo not drawn) [Dye P-1],"Low temperature suitability, Dihexyl ether (present invention)",[1],A
same,"Low temperature suitability, Dipentyl ether (present invention)",[1],A
same,"Low temperature suitability, Decane (comparative)",[1],B
same,"High temperature suitability, Dihexyl ether (present invention)",[2],A (Decrease in the mass of the vial was less than 10%.)
same,"High temperature suitability, Dipentyl ether (present invention)",[2],A (Decrease in the mass of the vial was less than 10%.)
same,"High temperature suitability, Decane (comparative)",[2],B (Decrease in the mass of the vial was 10% or more.)
same,Solubility Dihexyl ether,[3],20 or more % by mass
same,Solubility n-Decane,[3],20 or more % by mass
CCCCC(CC)CN(CC(CC)CCCC)c1ccc(/N=C2/C(C)=Nn3nc(C(C)(C)C)nc32)cc1 (stereo not drawn) [Dye P-2],"Low temperature suitability, Dihexyl ether (present invention)",[1],A
same,"Low temperature suitability, Dipentyl ether (present invention)",[1],A
same,"Low temperature suitability, Decane (comparative)",[1],B
same,"High temperature suitability, Dihexyl ether (present invention)",[2],A (Decrease in the mass of the vial was less than 10%.)
same,"High temperature suitability, Dipentyl ether (present invention)",[2],A (Decrease in the mass of the vial was less than 10%.)
same,"High temperature suitability, Decane (comparative)",[2],B (Decrease in the mass of the vial was 10% or more.)
same,Solubility Dihexyl ether,[3],20 or more % by mass
same,Solubility n-Decane,[3],20 or more % by mass
C1CCC(OC2CCCCC2)CC1 [dicyclohexyl ether],relative dielectric constant ∈r,[4],2.1
CCCCCCCCCCCCOCCCCCCCCCCCC [didodecyl ether],relative dielectric constant ∈r,[4],2.1
CCCCCCCOCCCCCCC [diheptyl ether],relative dielectric constant ∈r,[4],2.1
CCCCCCOCCCCCC [dihexyl ether],relative dielectric constant ∈r,[4],2.1
CCCCCOCCCCC [dipentyl ether],relative dielectric constant ∈r,[4],2.1
